From patent US20240415808A1, “Dosage Regimen for Fexuprazan Injection Composition” (Daewoong Pharmaceutical Co., Ltd., priority 2021, published 2024)
Several values for one entry are separate records, joined by “and”; a condition that tells them apart may be missing. Equal entries are not always repeated.

Assays:
[1] = test system: acidity (pH) in the gastrointestinal tract; assay: oral vs intravenous two-way crossover clinical trial, acidity (pH) in the gastrointestinal tract; assay type: in vivo, human; settings: healthy adults
Excerpt: Therefore, in order to compare the safety/PK/PD of the compound of the present invention during single intravenous administration and during single oral administration and derive the bioavailability, the clinical trial was designed as a randomized, open-label, single-dose, two-period, two-way crossover trial in healthy adults. The selection/exclusion criteria were the same as in Experimental Example 4. A total of 8 subjects were enrolled, and four subjects each were randomly assigned to sequence group 1 or sequence group 2 in the order in which they passed the screening criteria. All test subjects completed safety, pharmacokinetic, and pharmacodynamic evaluations according to the planned clinical trial schedule.
A screening visit was performed 3 to 28 days before the start of the clinical trial, and hospital admission was performed 2 days before medication. The first phase medication was performed according to the order group randomly assigned on the morning of the day. A stabilizer (200 mg), a freeze-drying auxiliary agent (200 mg), and the previously prepared fexuprazan hydrochloride (40 mg based fexuprazan weight) were dissolved in water for injection (4 mL), an appropriate amount of acid was added thereto. A composition whose pH was adjusted to 4.0 was administered intravenously, or an excipient (100 mg), a disintegrant (5 mg), and the previously prepared fexuprazan hydrochloride (40 mg based on fexuprazan weight) were mixed and compressed to prepare a tablet, which were administered orally. The hospital discharge was performed on the third day of medication. The second phase medication was performed on the morning of the 8th after hospital admission on the 6th day after the first phase medication. Hospital discharge was performed on the 10th day of medication. Subsequently, a close-out visit was performed between 15 and 18 days after medication (FIG. 6).
Testing of the acidity (pH) in the gastrointestinal tract and gastric secretion promoting hormone gastrin were performed from 24 hours before medication to 24 hours after medication. Blood collection for pharmacokinetics and urine collection for pharmacokinetics were performed for 48 hours from the time of medication.

[2] = test system: acidity (pH) in the gastrointestinal tract; assay: multiple intravenous administration clinical trial (7 days), acidity (pH) in the gastrointestinal tract; assay type: in vivo, human; settings: healthy adults; for Fraction time pH ≥ 4 over 24 hours post-dose (duration %) / Mean pH / Median pH: 7th day
Description: Subsequent to Experimental Example 4, in order to confirm the change in PD value during multiple administration of the compound of the present invention, the clinical trial was designed to be randomized, double-blind, placebo-controlled in healthy adults between the ages of 19 and 50.
A stabilizer (200 mg), a freeze-drying auxiliary agent (200 mg), and the previously prepared fexuprazan hydrochloride (40 mg based on fexuprazan weight) were dissolved in water for injection (4 mL), and the pH was adjusted to 4.0 by adding an appropriate amount of acid. The prepared solution was put into a vial and dried using a freeze-drying method to prepare a freeze-dried agent.
The freeze-dried composition prepared as above was used, but a total of 28 subject of […], 8, and 8 subjects each were enrolled for three dose groups (20 mg, 40 mg, and 80 mg) based on fexuprazan weight, and each group was randomly assigned to test or control groups in the order that they passed the screening criteria at a ratio of 3:1.
Dose groups 1 and 3 in Table 12 were administered once a day (every 24 hours) (FIG. 8), and dose group 2 was administered twice a day (every 12 hours) for 7 days (FIG. 9).
The acidity (pH) tests in the gastrointestinal tract were performed for 48 hours from the day before administration to 24 hours after the first administration. On the 7th day, it was administered for 24 hours after administration. The measured results are shown in Table 13 and FIGS. 10 to 14 below.

[3] = pharmacokinetic experiment in male rats (oral and tail vein); assay type: in vivo, rat
Description: Methylcellulose was dissolved in physiological saline to prepare a solution containing methylcellulose at a concentration of 0.5 wt %, and then the previously prepared fexuprazan hydrochloride was added thereto to prepare a composition with Fexuprazan at a concentration of 1 mg/mL. The composition prepared above was orally administered to male rats at a dose of 2 mg/kg in a liquid volume of 2 mL/kg depending on the body weight of the individual, and then blood was collected using an orbital blood collection method at 0.25, 0.5, 1, 2, 4, 6, 8, and 24 hours, and centrifuged at 10,000 rpm for 5 minutes. Plasma was collected, analyzed by HPLC-MS/MS, and pharmacokinetic parameters were calculated.
Then, methylcellulose was dissolved in physiological saline to prepare a solution containing methylcellulose at a concentration of 0.5 wt,%, and then the previously prepared fexuprazan hydrochloride was added thereto to prepare a composition with fexuprazan at a concentration of 1 mg/mL. The composition was administered through the tail vein in male rats at a dose of 1 mg/kg in a liquid volume of 1 mL/kg depending on the body weight of the individual. Blood was collected by the same method as in oral administration at 0.083, 0.25, 0.5, 1, 2, 4, 6, 8, and 24 hours, and then analyzed.

[4] = intravenous administration (40 mg)

In the case of `CNCc1cn(S(=O)(=O)c2cccc(F)c2)c(-c2ccc(F)cc2F)c1OC` [Fexuprazan, 1-(5-(2,4-difluorophenyl)-1-((3-fluorophenyl)sulfonyl)-4-methoxy-1H-pyrrol-3-yl)-N-methylmethanamine], the “Fraction time pH ≥ 4 (%)” value [1, 4] is reported as 71.6% and 71.6 ± 13.5%, the “Fraction time pH ≥ 6 (%)” value [1, 4] is reported as 38.7 ± 10.9% and the “Mean pH” value [1, 4] is reported as 4.9 and 4.9 ± 0.5. The “Median pH” value [1, 4] was 5.5 ± 0.7, the “Fraction time pH ≥ 4 (%)” value ([1]; oral administration (40 mg)) was 47.5% and 47.5 ± 14.2% and the “Fraction time pH ≥ 6 (%)” value ([1]; oral administration (40 mg)) was 20.3 ± 12.8%. For the same compound, the “Mean pH” value ([1]; oral administration (40 mg)) was 3.9 and 3.9 ± 0.7, the “Median pH” value ([1]; oral administration (40 mg)) was 3.9 ± 1.2 and the “Fraction time pH ≥ 4 over 24 hours post-dose (duration %)” value ([2]; 20 mg IV q24h) was 55.68 (±14.85) % and 55.68 ± 14.85%. For the same compound, the “Mean pH” value ([2]; 20 mg IV q24h) was 4.28 ± 0.7, the “Median pH” value ([2]; 20 mg IV q24h) was 4.29 ± 1.32 and the “Fraction time pH ≥ 6 over 24 hours post-dose (duration %)” value ([2]; 20 mg IV q24h, 7th day (n = 6)) was 25.29 ± 15.41%. The “Fraction time pH ≥ 4 over 24 hours post-dose (duration %)” value ([2]; 40 mg IV q12h) was 99.85 ± 0.31%, the “Mean pH” value ([2]; 40 mg IV q12h) was 6.34 ± 0.23 and the “Median pH” value ([2]; 40 mg IV q12h) was 6.33 ± 0.22. For the same compound, the “Fraction time pH ≥ 6 over 24 hours post-dose (duration %)” value ([2]; 40 mg IV q12h, 7th day (n = 5)) was 74.77 (±13.39) % and 74.77 ± 13.39%, the “Fraction time pH ≥ 4 over 24 hours post-dose (duration %)” value ([2]; 80 mg IV q24h) was 94.78 ± 8.49% and the “Mean pH” value ([2]; 80 mg IV q24h) was 6.08 ± 0.5. For the same compound, the “Median pH” value ([2]; 80 mg IV q24h) was 6.28 ± 0.27, the “Fraction time pH ≥ 6 over 24 hours post-dose (duration %)” value ([2]; 80 mg IV q24h, 7th day (n = 6)) was 70.07% and 70.07 ± 18.09% and the BA ([3]; PO 2 mg/kg vs IV 1 mg/kg) was 24.7%. For the same compound, the AUC(0-t) ([3]; rat, plasma, IV 1 mg/kg) was 143 ± 38 ng·h/mL, the Vd ([3]; rat, plasma, IV 1 mg/kg) was 20.2 ± 5.2 L/kg and the clearance ([3]; rat, plasma, IV 1 mg/kg) was 114 ± 29 mL/min/kg. For the same compound, the half-life ([3]; rat, plasma, IV 1 mg/kg) was 2.06 ± 0.25 h, the AUC(0-t) ([3]; rat, plasma, PO 2 mg/kg) was 70.9 ± 22.4 ng·h/mL and the Cmax ([3]; rat, plasma, PO 2 mg/kg) was 23.8 ± 10.7 ng/mL. It also gave a Tmax ([3]; rat, plasma, PO 2 mg/kg) of 0.833 ± 0.289 h and a half-life ([3]; rat, plasma, PO 2 mg/kg) of 1.74 ± 0.16 h.
